Consider three compounds from ChEMBL document CHEMBL4414645, “Development of Robust 17(R),18(S)-Epoxyeicosatetraenoic Acid (17,18-EEQ) Analogues as Potential Clinical Antiarrhythmic Agents” (J Med Chem, 2019).

The nature of data set [1]: Elimination half life in Sprague-Dawley (RjHan:SD) rat at 3 mg/kg, po administered via gavage by LC-MS analysis. Type of data set: ADME, organism-based. Conditions: in vivo, read-out: beta t1/2 (converted).
In data set [2] the test system is Cytochrome P450. Description: Drug metabolism in human liver microsomes assessed as CYP450-mediated formation of [+O] metabolites at 1 uM after 60 mins in absence of NADPH by LC-MS analysis. Type of data set: ADME. Conditions: 1 h.
In data set [3] the target is T1, Cytochrome P450 1A2 (Homo sapiens, UniProt P05177).
T1 sequence (P05177 whole entry): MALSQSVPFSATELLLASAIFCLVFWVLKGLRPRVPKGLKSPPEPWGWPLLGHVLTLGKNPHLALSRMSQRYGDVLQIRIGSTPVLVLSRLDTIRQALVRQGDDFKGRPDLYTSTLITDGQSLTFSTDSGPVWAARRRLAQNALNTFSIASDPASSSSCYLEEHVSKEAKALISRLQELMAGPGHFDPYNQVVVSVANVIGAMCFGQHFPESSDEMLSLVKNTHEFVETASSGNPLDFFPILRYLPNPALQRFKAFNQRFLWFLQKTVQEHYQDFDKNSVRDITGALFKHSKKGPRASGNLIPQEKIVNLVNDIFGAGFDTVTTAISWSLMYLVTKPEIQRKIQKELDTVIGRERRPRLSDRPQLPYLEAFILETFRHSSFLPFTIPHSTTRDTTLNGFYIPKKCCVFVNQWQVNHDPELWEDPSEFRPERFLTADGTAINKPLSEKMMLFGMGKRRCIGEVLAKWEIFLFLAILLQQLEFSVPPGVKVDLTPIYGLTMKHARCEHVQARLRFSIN
The data set is described as follows: Inhibition of human CYP1A2 by fluorescence method. Type of data set: ADME.

Data set [4] addresses T2, Epoxide hydrolase 1/Bifunctional epoxide hydrolase 2 (Homo sapiens, UniProt P07099+P34913).
T2 sequence (P07099 whole entry): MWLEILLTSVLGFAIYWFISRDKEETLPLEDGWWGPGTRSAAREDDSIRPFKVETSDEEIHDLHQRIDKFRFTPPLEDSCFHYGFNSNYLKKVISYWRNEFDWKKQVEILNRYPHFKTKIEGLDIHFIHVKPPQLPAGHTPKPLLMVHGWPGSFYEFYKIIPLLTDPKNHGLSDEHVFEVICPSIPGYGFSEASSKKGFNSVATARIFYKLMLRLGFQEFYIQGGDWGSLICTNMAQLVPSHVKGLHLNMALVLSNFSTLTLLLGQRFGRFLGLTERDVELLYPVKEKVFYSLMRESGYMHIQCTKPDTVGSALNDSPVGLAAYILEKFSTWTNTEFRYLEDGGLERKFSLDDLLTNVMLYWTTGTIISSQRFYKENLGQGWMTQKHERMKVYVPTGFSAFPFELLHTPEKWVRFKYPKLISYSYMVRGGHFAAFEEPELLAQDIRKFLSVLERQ
T2 sequence (P34913 whole entry): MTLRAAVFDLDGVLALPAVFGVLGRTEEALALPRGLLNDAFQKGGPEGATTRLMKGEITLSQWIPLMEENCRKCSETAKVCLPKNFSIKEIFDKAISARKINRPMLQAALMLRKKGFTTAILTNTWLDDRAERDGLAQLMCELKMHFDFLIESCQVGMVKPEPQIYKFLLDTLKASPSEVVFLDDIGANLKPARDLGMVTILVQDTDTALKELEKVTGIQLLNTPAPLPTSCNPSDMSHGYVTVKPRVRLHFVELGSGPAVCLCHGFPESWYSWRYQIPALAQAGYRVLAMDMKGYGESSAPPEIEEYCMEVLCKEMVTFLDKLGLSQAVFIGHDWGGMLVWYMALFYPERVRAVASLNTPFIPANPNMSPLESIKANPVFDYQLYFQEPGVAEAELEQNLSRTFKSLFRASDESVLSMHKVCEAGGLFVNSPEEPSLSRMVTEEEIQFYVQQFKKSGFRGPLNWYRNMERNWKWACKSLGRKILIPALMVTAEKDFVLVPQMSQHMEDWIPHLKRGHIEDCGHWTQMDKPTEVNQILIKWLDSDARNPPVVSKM
The data set is described as follows: Drug metabolism in human liver microsomes assessed as microsomal/soluble epoxide hydrolase mediated formation of [+O + H2O] metabolites at 1 uM after 60 mins in absence of NADPH by LC-MS analysis. Type of data set: ADME. The conditions noted are these: 1 h.

Data set [5] in a line: Oral bioavailability in Sprague-Dawley (RjHan:SD) rat at 3 mg/kg administered via gavage by LC-MS analysis. Type of data set: ADME, organism-based. Conditions: in vivo.
Data set [6] concerns the target T3, Cytochrome P450 2B6 (Homo sapiens, UniProt P20813).
T3 sequence (P20813 whole entry): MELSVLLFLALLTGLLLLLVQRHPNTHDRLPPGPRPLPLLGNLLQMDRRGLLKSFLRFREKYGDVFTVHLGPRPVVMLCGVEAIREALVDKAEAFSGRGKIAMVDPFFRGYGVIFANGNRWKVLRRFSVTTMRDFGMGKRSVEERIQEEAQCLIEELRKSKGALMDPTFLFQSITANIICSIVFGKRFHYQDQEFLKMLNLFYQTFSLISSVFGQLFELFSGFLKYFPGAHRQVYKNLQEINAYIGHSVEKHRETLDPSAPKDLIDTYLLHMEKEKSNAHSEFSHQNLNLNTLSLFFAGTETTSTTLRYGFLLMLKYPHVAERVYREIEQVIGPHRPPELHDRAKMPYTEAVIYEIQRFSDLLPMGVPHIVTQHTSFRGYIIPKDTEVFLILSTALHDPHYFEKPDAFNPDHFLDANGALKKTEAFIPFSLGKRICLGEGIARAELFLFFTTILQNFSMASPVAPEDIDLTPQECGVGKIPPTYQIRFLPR
Description: Inhibition of human CYP2B6 by fluorescence method. Type of data set: ADME.

Data set [7] can be described thus: Efflux ratio of apparent permeability across basolateral to apical side over apical to basolateral side in human Caco2 cells at 10 uM after 15 to 90 mins by LC-ESI-MS/MS analysis. Type of data set: ADME, cell-based. Conditions: Caco-2.
Data set [8] is described as follows: Negative chronotropic activity in Wistar rat neonatal cardiomyocytes assessed as change in basal beating rate after 7 mins by inverted microscopic method. Type of data set: functional.

On to `CNC(=O)C(=O)NCCCC/C=C\CCCCCCCCCc1nnn[nH]1`, for which the half-life in data set [1] is 3.6 h. For the same compound, the Drug metabolism entry in data set [2] and in data set [4] was “Metabolite_Notdetected” each time. Besides, the IC50 in data set [3] and in data set [6] was > 50 µM in each case. In data set [5], the bioavailability stood at 35%. Moreover, the efflux ratio at 10 µM in data set [7] was 0.8. In data set [8], the Activity is reported as -30.9 bpm.

For `CNC(=O)C(=O)NCCCC/C=C\CCCCCCCOCC(=O)O`, the half-life in data set [1] was 9.6 h. Besides, the Drug metabolism entry in data set [2] and in data set [4] was “Metabolite_Notdetected” in each case. Besides, the IC50 in data set [3] and in data set [6] was > 50 µM each time. The same compound came in with a bioavailability in data set [5] of 100%. Besides, in data set [7], the efflux ratio at 10 µM amounted to 0.6. Besides, in data set [8], the Activity is recorded as -33.6 bpm.

In the case of `CNC(=O)C(=O)NCCCC/C=C\CCCCCCCCCC(=O)O`, the Drug metabolism result in data set [2] and in data set [4] was “Metabolite_Notdetected” each time. Moreover, the IC50 in data set [3] and in data set [6] was > 50 µM in each case. In addition, in data set [7], the efflux ratio at 10 µM is 0.4.
